# Data reported in patent publication US20240239802A1, “CRYSTAL FORM OF PYRROLOPYRIMIDINE COMPOUND AND PREPARATION METHOD FOR CRYSTAL FORM” (ZHEJIANG LONGCHARM BIO-TECH PHARMA. CO., LTD., priority 2021, published 2024).
# Key:
# [1] = Unbound PPB (Mouse); type: in vitro ADME
# [2] = Unbound PPB (Rat in vivo test PPB); type: in vitro ADME
# [3] = molecular target: BTK^C481S (Homo sapiens (Human), UniProt Q06187, C481S); test: BTK enzyme activity test (33P-ATP filtration-binding); type: biochemical
# Sequence of BTK^C481S (Q06187 whole entry C481S): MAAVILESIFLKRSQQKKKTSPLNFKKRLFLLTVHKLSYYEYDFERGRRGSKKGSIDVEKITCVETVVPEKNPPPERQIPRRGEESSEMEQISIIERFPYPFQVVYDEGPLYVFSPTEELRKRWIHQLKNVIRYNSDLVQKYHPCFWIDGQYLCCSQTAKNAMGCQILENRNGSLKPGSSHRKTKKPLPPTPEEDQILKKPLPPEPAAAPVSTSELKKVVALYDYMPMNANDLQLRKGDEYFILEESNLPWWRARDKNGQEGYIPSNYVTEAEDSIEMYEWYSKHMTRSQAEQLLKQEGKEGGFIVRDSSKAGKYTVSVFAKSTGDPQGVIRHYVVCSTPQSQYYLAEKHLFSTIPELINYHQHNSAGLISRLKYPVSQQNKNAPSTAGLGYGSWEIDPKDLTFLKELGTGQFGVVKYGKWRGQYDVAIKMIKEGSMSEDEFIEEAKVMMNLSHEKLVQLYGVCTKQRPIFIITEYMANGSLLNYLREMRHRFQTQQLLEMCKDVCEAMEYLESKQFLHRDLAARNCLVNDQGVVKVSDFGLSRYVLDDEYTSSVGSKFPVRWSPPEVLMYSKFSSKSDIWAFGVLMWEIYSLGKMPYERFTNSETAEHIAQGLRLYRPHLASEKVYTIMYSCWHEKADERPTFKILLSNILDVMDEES
# Experimental: The specific experimental process of BTK enzyme activity test is as follows:
# Buffer: 20 mM hydroxyethylpiperazine ethylsulfuric acid (Hepes) (pH 7.5), 10 mM magnesium chloride, 1 mM ethylene glycol bisaminoethyl ether tetraacetic acid (EGTA), 0.02% polyoxyethylene lauryl ether (Brij35), 0.02 mg/mL BSA, 0.1 mM sodium vanadate (Na3VO4), 2 mM dithiothreitol (DTT), 1% DMSO, 200 μM adenosine triphosphate (ATP).
# 1. Configuring the substrate in the newly prepared reaction buffer
# 2. Adding the required cofactors to the above substrate solution
# 3. Adding the kinase BTK^C481S to the above substrate solution and mixing well
# 4. Adding the compound dissolved in DMSO to the kinase reaction mixture through
# Echo550 (Acoustic technology; nanoliter range), and incubating at room temperature for 20 minutes
# 5. Adding ^33P-ATP (with a specific activity of 10 μCi/μL) into the reaction mixture to initiate the reaction
# 6. Incubating at room temperature for 2 hours
# 7. Detection of radioactivity by filtration-binding method
# 8. Kinase activity data represent the percentage of remaining kinase activity in the test sample compared to the vehicle (dimethyl sulfoxide) reaction.
# [4] = Pharmacokinetics (oral) in SD rats; type: in vivo; details: for AUCu: 1.9 / 1.8 mg/kg, AUCu = AUC0-inf × Unbound PPB (Rat in vivo test PPB)
# Experimental: The compound of formula (I) and the reference example were mixed with vehicle 10% NMP/60% PEG400/30% H2O, vortexed and sonicated to prepare a 2 mg/mL clear solution. SD rats aged 7 to 10 weeks were selected, and the candidate compound solution was administered orally.
# Whole blood was collected for a certain period of time to prepare plasma, and the drug concentration was analyzed by LC-MS/MS method, and the pharmacokinetic parameters were calculated by Phoenix WinNonlin software (Pharsight, USA).
# [5] = Pharmacokinetics (intravenous) in SD rats; type: in vivo; details: for AUCu: 0.51 / 0.49 mg/kg, AUCu = AUC0-inf × Unbound PPB (Rat in vivo test PPB)
# Experimental: The compound of formula (I) and the reference example were mixed with vehicle 0.10 mg/mL in 10% NMP/60% PEG400/30% H2O, vortexed and sonicated to prepare a 0.5 mg/mL clear solution. SD rats aged 7 to 10 weeks were selected and given the candidate compound solution intravenously. Whole blood was collected for a certain period of time to prepare plasma, and the drug concentration was analyzed by LC-MS/MS. Pharmacokinetic parameters were calculated with Phoenix WinNonlin software (Pharsight, USA).
# [6] = Pharmacokinetics (oral administration) in CD-1 mice; type: in vivo; details: for AUCu: AUCu = AUC0-inf × Unbound PPB (Mouse)
# Experimental: The compound of formula (I) and the reference example were mixed with vehicle 10% NMP/60% PEG400/30% H2O, vortexed and sonicated to prepare a 0.6 mg/mL clear solution. Male CD-1 mice aged 7 to 10 weeks were selected, and the candidate compound solution was administered orally by gavage at a dose of 3.1 mg/kg. Whole blood was collected for a certain period of time to prepare plasma, and the drug concentration was analyzed by LC-MS/MS. Pharmacokinetic parameters were calculated with Phoenix WinNonlin software (Pharsight, USA).
# [7] = Pharmacokinetics (intravenous) in CD-1 mice; type: in vivo; details: for AUCu: AUCu = AUC0-inf × Unbound PPB (Mouse)
# Experimental: The compound of formula (I) and the reference example were mixed with vehicle 0.10 mg/mL in 10% NMP/60% PEG400/30% H2O, vortexed and sonicated to prepare a 0.1 mg/mL clear solution. Select CD-1 male mice aged 7 to 10 weeks and administer the candidate compound solution intravenously at a dose of 0.21 mg/kg.
# The whole blood was collected for a certain period of time to prepare plasma, and the drug concentration was analyzed by LC-MS/MS method. Pharmacokinetic parameters were calculated by Phoenix WinNonlin software (Pharsight, USA).
# [8] = Hygroscopicity research by dynamic vapor adsorption (DVS); type: physicochemical; details: 25° C. and 80% RH
# Experimental: The vapor adsorption analysis (DVS) method of this application.
# Instrument model: SMS DVS Advantage dynamic vapor adsorption instrument
# Test conditions: Take a sample (10-15 mg) and place it in a DVS sample tray for testing.
# The detailed DVS parameters are as follows:
# Balance: dm/dt=0.01%/min (shortest: 10 min, longest: 180 min)
# RH (%) test range: 0%-90%-0%
# SMS DVS Advantage dynamic vapor adsorption instrument
# Taking 10-15 mg of compound crystal form C of formula (I) and placing it in a DVS sample tray for testing.
# [9] = tested on: human B-cell lymphoma OCI-LY10 cells; test: OCI-LY10 SCID mouse subcutaneous xenograft tumor model; type: in vivo, SCID mice; details: for T/C / TGI: Day 20; for Tumor volume (Day 0) / Tumor volume (Day 20): Mean ± SEM
# Experimental: OCI-LY10SCID mouse xenograft tumor model:
# Experimental Method: Subcutaneous Xenograft Tumor Model in Mice with Human B-Cell Lymphoma
# Tumor cells in the logarithmic growth phase were collected and resuspended in IMDM basal medium. Matrigel was added to adjust the concentration of cells to 4×10^7/Ml. Under sterile conditions, SCID mice were inoculate with cell suspension subcutaneously on the right back at a concentration of 4×10^6/0.1 mL/mouse. When the animal tumor reached about 131.55-227.87 mm^3, the tumor-bearing mice were divided into 5 groups according to the size of the tumor volume, with 8 […] in each group. On the day of the experiment, the animals were given corresponding drugs according to the groups.
# During the experiment, the body weight and tumor size of the animals were measured 3 times a week, and the clinical symptoms of the animals were observed and recorded every day, and each administration was referred to the last weighed animal body weight.
# The length (a) and width (b) of the tumor were measured with a digital vernier caliper, and tumor volume (Tumor volume, TV) was calculated according to the formula below: […]
# [10] = Competitive experiment of crystal form B and crystal form C (suspension in methyl tert-butyl ether); type: physicochemical
# Experimental: Three groups of 30 mg crystal form B and 30 mg crystal form C compounds were respectively added to different 2.0 mL glass vials, and 0.6 mL methyl tert-butyl ether was added to obtain a suspension, and the suspension samples were placed in the magnetic heating stirrer was stirred at 20° C., 40° C. and 60° C. for 16 hours, the suspension was centrifuged to obtain a white solid, and the crystal form C of the compound of formula (I) was obtained by vacuum drying to constant weight.
# [11] = Solid stability test (XRPD) under high temperature, high humidity and strong light; type: physicochemical
# Experimental: According to the “Guiding Principles for Stability Testing of Raw Materials and Preparations” (Chinese Pharmacopoeia 2015 Edition Four General Rules 9001), the crystal form C of the compound of formula (I) was investigated for its stability under high temperature (60° C., open), high humidity (a. room temperature/relative humidity 92.5%, open; b. 40° C./75% relative humidity, open; c. 60° C./75% relative humidity, open) and the stability under strong light (5000 1×, airtight).
# The crystal form C (15 mg) of the compound of formula (I) is weighed and placed on the bottom of the glass sample bottle to be spread into a thin layer. Samples placed under high-temperature and high-humidity conditions are sealed with aluminum foil, and small holes are formed on the aluminum foil to ensure that the samples can fully contact with the ambient air; and the sample placed under the strong illumination condition is sealed by a threaded bottle cap. Samples placed under different conditions were sampled and tested (XRPD) on the 5th day, 10th day, and 1 month. The test results were compared with the initial test results on day 0.
# [12] = rat, plasma, SD rats, 1.9 mg/kg (Reference Example) / 1.8 mg/kg (Compound of Formula (I))
# [13] = rat, plasma, SD rats, 0.51 mg/kg (Reference Example) / 0.49 mg/kg (Compound of Formula (I))
# [14] = mouse, plasma, 3.1 mg/kg, CD-1 male mice
# [15] = mouse, plasma, 0.21 mg/kg, CD-1 male mice
smiles,measurement,setting,value
CO[C@@H]1C[C@@H](CO)OC[C@@H]1Nc1ncnc2[nH]cc(C(=O)c3ccc(Oc4ccccc4)cc3Cl)c12 [Compound of formula (I)],Unbound PPB,[1]; Table 10,0.4%
same,Unbound PPB,[1]; Table 11,0.4%
same,Unbound PPB,[2]; Table 12,0.2%
same,Unbound PPB,[2]; Table 13,0.2%
same,"Inhibitory effect on BTK C481S mutation, conclusion",[3],strong inhibitory effect
same,"Free drug concentration in rat plasma, conclusion",[4],higher than that of the reference compound
same,AUCu,[4]; SD rats,0.0078 µM·h
same,"Free drug concentration in rat plasma, conclusion",[5],higher than that of the reference compound
same,AUCu,[5]; SD rats,0.0034 µM·h
same,"Free drug concentration in mouse plasma, conclusion",[6],higher than that of the reference compound
same,AUCu,"[6]; 3.1 mg/kg, CD-1 male mice",0.133 µM·h
same,"Free drug concentration in mouse plasma, conclusion",[7],higher than that of the reference compound
same,AUCu,"[7]; 0.21 mg/kg, CD-1 male mice",0.0124 µM·h
CO[C@@H]1C[C@@H](CO)OC[C@@H]1Nc1ncnc2[nH]cc(C(=O)c3ccc(Oc4ccccc4)cc3Cl)c12 [Form C],Hygroscopicity classification,[8],slightly hygroscopic (2% > ΔW % ≥ 0.2%)
same,ΔW (hygroscopic weight gain),[8]; DVS,0.262%
same,T/C,[9]; 15 mg/kg PO QD × 21,65.50%
same,TGI,[9]; 15 mg/kg PO QD × 21,49.61%
same,Tumor volume (Day 0),[9]; 15 mg/kg PO QD × 21,182.02 ± 9.76 mm^3
same,Tumor volume (Day 20),[9]; 15 mg/kg PO QD × 21,471.07 ± 16.55 mm^3
same,T/C,[9]; 30 mg/kg PO QD × 21,45.05%
same,TGI,[9]; 30 mg/kg PO QD × 21,71.75%
same,Tumor volume (Day 0),[9]; 30 mg/kg PO QD × 21,180.91 ± 9.67 mm^3
same,Tumor volume (Day 20),[9]; 30 mg/kg PO QD × 21,342.95 ± 20.06 mm^3
same,T/C,[9]; 45 mg/kg PO QD × 21,29.25%
same,TGI,[9]; 45 mg/kg PO QD × 21,92.82%
same,Tumor volume (Day 0),[9]; 45 mg/kg PO QD × 21,180.19 ± 10.07 mm^3
same,Tumor volume (Day 20),[9]; 45 mg/kg PO QD × 21,221.38 ± 37.11 mm^3
same,"Tumor inhibitory effect versus reference compound, conclusion",[9]; at the same dose,obviously better than that of reference compound
same,"Tumor growth inhibition, conclusion",[9]; inhibitory effect positively correlated with dose,significantly inhibit tumor growth
same,"Relative stability compared with Form B, conclusion",[10],"Conclusion: Compared with Form B, Form C is more stable."
same,Crystal Form (XRPD),"[11]; 0 day, initial",Form C
same,Crystal Form (XRPD),"[11]; High humidity (40° C./75% relative humidity, open), 1 month",Form C
same,Crystal Form (XRPD),"[11]; High humidity (60° C./75% relative humidity, open), 1 month",Form C
same,Crystal Form (XRPD),"[11]; High humidity (room temperature/relative humidity 92.5%, open), 5th day",Form C
same,Crystal Form (XRPD),"[11]; High humidity (room temperature/relative humidity 92.5%, open), 10th day",Form C
same,Crystal Form (XRPD),"[11]; High temperature (60° C., open), 5th day",Form C
same,Crystal Form (XRPD),"[11]; High temperature (60° C., open), 10th day",Form C
same,Crystal Form (XRPD),"[11]; Strong light (5000 lx, airtight), 10th day",Form C
same,"Solid stability, conclusion","[11]; high temperature, high humidity and strong light conditions","Conclusion: The crystal form C of the compound of formula (I) has good stability under high temperature, high humidity and strong light conditions."
O=C(c1ccc(Oc2ccccc2)cc1Cl)c1c[nH]c2ncnc(N[C@@H]3CC[C@@H](CO)OC3)c12 [Reference Example],Unbound PPB,[1]; Table 10,0.2%
same,Unbound PPB,[1]; Table 11,0.2%
same,Unbound PPB,[2]; Table 12,0.1%
same,Unbound PPB,[2]; Table 13,0.1%
same,AUCu,[4]; SD rats,0.005 µM·h
same,AUC(0-inf),[4]; [12],5.03 µM·h
same,Cmax,[4]; [12],607 nM
same,half-life,[4]; [12],2.41 h
same,AUCu,[5]; SD rats,0.0019 µM·h
same,AUC(0-inf),[5]; [13],1.92 µM·h
same,C0,[5]; [13],800 nM
same,Vd,[5]; [13],1.57 L/kg
same,clearance,[5]; [13],9.08 mL/min/kg
same,half-life,[5]; [13],2.02 h
same,AUCu,"[6]; 3.1 mg/kg, CD-1 male mice",0.0882 µM·h
same,AUC(0-inf),[6]; [14],44.1 µM·h
same,Cmax,[6]; [14],3840 nM
same,half-life,[6]; [14],3.75 h
same,AUCu,"[7]; 0.21 mg/kg, CD-1 male mice",0.007 µM·h
same,AUC(0-inf),[7]; [15],3.49 µM·h
same,C0,[7]; [15],1040 nM
same,Vd,[7]; [15],0.7 L/kg
same,clearance,[7]; [15],2.01 mL/min/kg
same,half-life,[7]; [15],4.34 h
same,T/C,[9]; 45 mg/kg PO QD × 21,42.45%
same,TGI,[9]; 45 mg/kg PO QD × 21,74.47%
same,Tumor volume (Day 0),[9]; 45 mg/kg PO QD × 21,183.86 ± 9.48 mm^3
same,Tumor volume (Day 20),[9]; 45 mg/kg PO QD × 21,330.27 ± 19.35 mm^3
